Where a name gives a salt, the structure may show the parent alone. Read-outs that look alike come from different tables or passages of the source.
Target: T1, purified human Factor XIa (Homo sapiens, UniProt P03951)
T1 construct: purchased Haematologic Technologies
Experiment: Factor XIa assay (chromogenic substrate S-2366 hydrolysis, Ki)
Assay type: biochemical
Procedure: The effectiveness of compounds of the present invention as inhibitors of the coagulation factors XIa, VIIa, IXa, Xa, XIIa, plasma kallikrein or thrombin, can be determined using a relevant purified serine protease, respectively, and an appropriate synthetic substrate. The rate of hydrolysis of the chromogenic or fluorogenic substrate by the relevant serine protease was measured both in the absence and presence of compounds of the present invention. […] A decrease in the rate of absorbance or fluorescence change in the presence of inhibitor is indicative of enzyme inhibition. Such methods are known to one skilled in the art. The results of this assay are expressed as the inhibitory constant, Ki.
Values of Ki were determined by allowing the protease to react with the substrate in the presence of the inhibitor. Reactions were allowed to go for periods of 20-180 minutes (depending on the protease) and the velocities (rate of absorbance or fluorescence change versus time) were measured. The following relationships were used to calculate Ki values:
vs/vo=A+((B−A)/1+((IC50/(I)^n))) and […]

[1] = purified human Factor XIa 75-200 pM, substrate S-2366, 50 mM HEPES pH 7.4, read-out: Factor XIa Ki

T1 sequence (P03951 19-387): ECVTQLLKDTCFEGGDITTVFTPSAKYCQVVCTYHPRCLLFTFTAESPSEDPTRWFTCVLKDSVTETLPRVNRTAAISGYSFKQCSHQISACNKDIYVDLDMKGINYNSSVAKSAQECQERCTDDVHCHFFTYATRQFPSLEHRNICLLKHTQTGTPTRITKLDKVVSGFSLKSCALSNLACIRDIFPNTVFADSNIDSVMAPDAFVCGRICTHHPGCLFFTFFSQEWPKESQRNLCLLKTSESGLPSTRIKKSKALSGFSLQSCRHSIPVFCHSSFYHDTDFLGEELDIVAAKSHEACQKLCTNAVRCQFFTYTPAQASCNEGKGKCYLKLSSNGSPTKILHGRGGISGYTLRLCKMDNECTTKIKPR
T1 sequence (P03951 388-625): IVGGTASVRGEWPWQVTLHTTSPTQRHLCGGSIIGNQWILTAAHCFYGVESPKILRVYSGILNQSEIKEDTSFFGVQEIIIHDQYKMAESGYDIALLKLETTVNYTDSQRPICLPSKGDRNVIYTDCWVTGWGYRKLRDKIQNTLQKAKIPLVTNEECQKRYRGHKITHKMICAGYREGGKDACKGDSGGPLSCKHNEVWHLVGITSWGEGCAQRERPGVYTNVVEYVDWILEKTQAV

Row | Compound | Ki [1] [µM] | Ki [µM]
1 | O=C(/C=C/c1cc(Cl)ccc1-n1cnnn1)N[C@@H](Cc1ccccc1)C(=O)Nc1ncc(C(=O)O)s1 [Example 21, 2-{(S)-2-[(E)-3-(5-chloro-2-tetrazol-1-yl-phenyl)-acryloylamino]-3-phenyl-propionylamino}-thiazole-5-carboxylic acid] | 0.105 | –
2 | COP(=O)(CCOC(=O)Nc1ccc(NC(=O)[C@H](Cc2ccccc2)NC(=O)/C=C/c2cc(Cl)ccc2-n2cnnn2)cc1)OC [Example 171, (S,E)-2-(dimethoxyphosphoryl)ethyl 4-(2-(3-(5-chloro-2-(1H-tetrazol-1-yl)phenyl)-acrylamido)-3-phenylpropanamido)phenylcarbamate] | 0.0381 | –
3 | O=C(/C=C/c1cc(Cl)ccc1-n1cnnn1)N[C@@H](Cc1ccccc1)C(=O)Nc1ccc(N2CCSCC2)cc1 [Example 99, (S,E)-3-(5-chloro-2-(1H-tetrazol-1-yl)phenyl)-N-(1-oxo-3-phenyl-1-(4-thiomorpholinophenylamino)propan-2-yl)acrylamide, TFA salt] | 1.48 | –
4 | O=C(/C=C/c1cc(Cl)ccc1-n1cnnn1)N[C@@H](CC1CCN(C(=O)c2ccccc2)C1)C(=O)Nc1ccc(C(=O)O)cc1 (stereo partly drawn) [Example 307, 4-((2S)-3-(1-benzoylpyrrolidin-3-yl)-2-((E)-3-(5-chloro-2-(1H-tetrazol-1-yl)phenyl)acrylamido)propanamido)benzoic acid] | – | 0.0124
5 | O=C(/C=C/c1cc(Cl)ccc1-n1cnnn1)N[C@@H](Cc1c[nH]c2ccccc12)C(=O)Nc1ccc(C(=O)O)cc1 [Example 238, (S,E)-4-(2-(3-(5-chloro-2-(1H-tetrazol-1-yl)phenyl)acrylamido)-3-(1H-indol-3-yl)propanamido)benzoic acid, TFA salt] | 0.00466 | –
6 | O=C(/C=C/c1cc(Cl)ccc1-n1cnnn1)N[C@@H](Cc1cccnc1)C(=O)Nc1ccc(C(=O)O)cc1 [Example 249, (S,E)-4-(2-(3-(5-chloro-2-(1H-tetrazol-1-yl)phenyl)acrylamido)-3-(pyridin-3-yl)propanamido)benzoic acid] | 0.00609 | –
7 | O=C(/C=C/c1cc(Cl)ccc1-n1cnnn1)N[C@@H](Cc1ccccc1)C(=O)Nc1cccn2c(C(F)(F)F)nnc12 [Example 142, (S,E)-3-(5-chloro-2-(1H-tetrazol-1-yl)phenyl)-N-(1-oxo-3-phenyl-1-(3-(trifluoromethyl)-[1,2,4]-triazolo[4,3-a]pyridin-8-ylamino)propan-2-yl)acrylamide] | – | 3.85
8 | O=C(/C=C/c1cc(Cl)ccc1-n1cnnn1)N[C@@H](Cc1ccccc1)C(=O)Nc1ccc2c(c1)C(=O)NC2 [Example 129, (S,E)-3-(5-chloro-2-(1H-tetrazol-1-yl)phenyl)-N-(1-oxo-1-(3-oxoisoindolin-5-ylamino)-3-phenylpropan-2-yl)acrylamide] | 0.0679 | –
9 | (4-{(S)-2-[(E)-3-(5-chloro-2-tetrazol-1-yl-phenyl)-acryloylamino]-3-phenyl-propionylamino}-cyclohexyl)-carbamic acid methyl ester [Example 11] | 4.44 | –
10 | CC[C@H](NC(=O)/C=C/c1cc(Cl)ccc1-n1cnnn1)C(=O)Nc1ccc(NC(=O)OC)cc1 [Example 50, (4-{(S)-2-[(E)-3-(5-chloro-2-tetrazol-1-yl-phenyl)-acryloylamino]-butyrylamino}-phenyl)-carbamic acid methyl ester] | 1.12 | –
11 | O=C(/C=C/c1c(F)ccc(Cl)c1F)N[C@@H](Cc1ccccc1)C(=O)Nc1ccc(C(=O)O)cc1 [Example 15, 4-{(S)-2-[(E)-3-(3-chloro-2,6-difluoro-phenyl)-acryloylamino]-3-phenyl-propionylamino}-benzoic acid] | – | 0.291
12 | O=C(/C=C/c1cc(Cl)ccc1-n1cnnn1)NC(Cc1cnc2ccccc2n1)C(=O)Nc1ccc(C(=O)O)cc1 (stereo not drawn) [Example 251, (E)-4-(2-(3-(5-chloro-2-(1H-tetrazol-1-yl)phenyl)acrylamido)-3-(quinoxalin-2-yl)propanamido)benzoic acid] | – | 0.0162
13 | O=C(/C=C/c1cc(Cl)ccc1-n1cnnn1)N[C@H](C(=O)Nc1ccc(C(=O)O)cc1)[C@@H]1CCCNC1 [Example 262, 4-((S)-2-((E)-3-(5-chloro-2-(1H-tetrazol-1-yl)phenyl)acrylamido)-2-((R)-piperidin-3-yl)acetamido)benzoic acid] | – | 2.33
14 | O=C(/C=C/c1cc(Cl)ccc1-n1cnnn1)N[C@@H](Cc1cccc(F)c1)C(=O)Nc1ccc(-c2nnn[nH]2)cc1 [Example 43, (E)-3-(5-chloro-2-tetrazol-1-yl-phenyl)-N-{(S)-2-(3-fluoro-phenyl)-1-[4-(1H-tetrazol-5-yl)-phenylcarbamoyl]-ethyl}-acrylamide] | 0.00161 | –
15 | O=C(/C=C/c1cc(Cl)ccc1-n1cnnn1)N[C@@H](Cc1ccccc1)C(=O)Nc1n[nH]c2ncccc12 [Example 137, (S,E)-N-(1-(1H-pyrazolo[3,4-b]pyridin-3-ylamino)-1-oxo-3-phenylpropan-2-yl)-3-(5-chloro-2-(1H-tetrazol-1-yl)phenyl)acrylamide, TFA salt] | 0.0539 | –
16 | N/C(=N/[N+](=O)[O-])NCCC[C@H](NC(=O)/C=C/c1cc(Cl)ccc1-n1cnnn1)C(=O)Nc1ccc(C(=O)O)cc1 [Example 253, 4-((S)-2-((E)-3-(5-chloro-2-(1H-tetrazol-1-yl)phenyl)acrylamido)-5-((Z)-2-nitroguanidino)pentanamido)benzoic acid] | – | 0.0193
17 | O=C(/C=C/c1cc(Cl)ccc1-n1cnnn1)N[C@@H](Cc1ccccc1)C(=O)N[C@@H]1CCCCNC1=O [Example 196] | – | 8.31

Next, values leading:

Row | Ki [1] [µM] | Ki [µM] | Compound
18 | 0.0339 | – | O=C(/C=C/c1cc(Cl)ccc1-n1cnnn1)N[C@@H](Cc1ccccc1)C(=O)Nc1ccc2c(=O)[nH][nH]c(=O)c2c1 [Example 36, (E)-3-(5-chloro-2-tetrazol-1-yl-phenyl)-N—[(S)-1-(1,4-dioxo-1,2,3,4-tetrahydro-phthalazin-6-ylcarbamoyl)-2-phenyl-ethyl]-acrylamide]
19 | – | 6.5 | O=C(N[C@@H](Cc1ccccc1)C(=O)NCCc1cc(Cl)ccc1-n1cnnn1)c1n[nH]c2ccccc12 [Example 149, (S)—N-(1-(5-chloro-2-(1H-tetrazol-1-yl)phenethylamino)-1-oxo-3-phenylpropan-2-yl)-1H-indazole-3-carboxamide]
20 | – | 0.0162 | O=C(/C=C/c1cc(Cl)ccc1-n1cnnn1)N[C@@H](CC(=O)NCc1cnccn1)C(=O)Nc1ccc(C(=O)O)cc1 [Example 252, (S,E)-4-(2-(3-(5-chloro-2-(1H-tetrazol-1-yl)phenyl)acrylamido)-4-oxo-4-(pyrazin-2-ylmethylamino)butanamido)benzoic acid]
21 | – | 3.63 | COC[C@H](NC(=O)/C=C/c1cc(Cl)ccc1-n1cnnn1)C(=O)Nc1ccc(C(=O)O)cc1 [Example 254, (S,E)-4-(2-(3-(5-chloro-2-(1H-tetrazol-1-yl)phenyl)acrylamido)-3-methoxypropanamido)benzoic acid]
22 | – | 0.317 | C[C@H](NC(=O)/C=C/c1cc(Cl)ccc1-n1cnnn1)C(=O)Nc1ccc(CC(=O)O)cc1 [Example 51, (4-{(S)-2-[(E)-3-(5-chloro-2-tetrazol-1-yl-phenyl)-acryloylamino]-propionylamino}-phenyl)-acetic acid]
23 | 0.0334 | – | CN1CCN(C(=O)C[C@H](NC(=O)/C=C/c2cc(Cl)ccc2-n2cnnn2)C(=O)Nc2ccc(C(=O)O)cc2)CC1 [Example 45, 4-[(S)-2-[(E)-3-(5-chloro-2-tetrazol-1-yl-phenyl)-acryloylamino]-4-(4-methyl-piperazin-1-yl)-4-oxo-butyrylamino]-benzoic acid]
24 | 0.672 | – | Nc1n[nH]c2cc(NC(=O)[C@H](Cc3ccccc3)NC(=O)C[S+]([O-])c3cc(Cl)ccc3-n3cnnn3)ccc12 (single isomer, unassigned; isomer b) [Example 133]
25 | – | 0.0659 | COC(=O)c1ccc(NC(=O)[C@H](Cc2cc(C)n(C)n2)NC(=O)/C=C/c2c(-n3cnnn3)ccc(Cl)c2F)nc1 [Example 216, (S,E)-methyl 6-(2-(3-(3-chloro-2-fluoro-6-(1H-tetrazol-1-yl)phenyl)acrylamido)-3-(1,5-dimethyl-1H-pyrazol-3-yl)propanamido)nicotinate, TFA salt]
26 | – | 0.0539 | COC(=O)c1ccc2nc(NC(=O)[C@H](Cc3ccccc3)NC(=O)/C=C/c3cc(Cl)ccc3-n3cnnn3)nn2c1 [Example 92, (S,E)-methyl 2-(2-(3-(5-chloro-2-(1H-tetrazol-1-yl)phenyl)acrylamido)-3-phenylpropanamido)-[1,2,4]triazolo[1,5-a]pyridine-6-carboxylate]
27 | – | 0.0444 | CS(=O)(=O)CC[C@H](NC(=O)/C=C/c1cc(Cl)ccc1-n1cnnn1)C(=O)Nc1ccc(C(=O)O)cc1 [Example 231, (S,E)-4-(2-(3-(5-chloro-2-(1H-tetrazol-1-yl)phenyl)acrylamido)-4-(methylsulfonyl)butanamido)benzoic acid]
28 | 2.96 | – | COC(=O)Nc1ccc(NC(=O)[C@H](Cc2ccccc2)NC(=O)/C=C/c2cc(Cl)ccc2-n2cnnn2)c(Cl)c1 [Example 14, (3-chloro-4-{(S)-2-[(E)-3-(5-chloro-2-tetrazol-1-yl-phenyl)-acryloylamino]-3-phenyl-propionylamino}-phenyl)-carbamic acid methyl ester]
29 | 0.00241 | – | O=C(/C=C/c1cc(Cl)ccc1-n1cnnn1)N[C@@H](Cc1cccs1)C(=O)Nc1ccc(C(=O)O)cc1 [Example 248, (S,E)-4-(2-(3-(5-chloro-2-(1H-tetrazol-1-yl)phenyl)acrylamido)-3-(thiophen-2-yl)propanamido)benzoic acid]
30 | – | 9.26 | O=C(N[C@@H](Cc1ccccc1)C(=O)NCCc1cc(Cl)ccc1-n1cnnn1)c1cn2cccnc2n1 [Example 295]
